From US10385024B2, “Compounds and methods for inhibiting NHE-mediated antiport in the treatment of disorders associated with fluid retention or salt overload and gastrointestinal tract disorders” (Ardelyx, Inc., priority 2012, dated 2019)

Assays:
Rat NHE-3 [1] = molecular target: T1, Rat NHE-3 (Rattus norvegicus, UniProt P26433); test: Cell-based assay of NHE-3 activity (rat NHE-3 prompt inhibition); conditions: OK cells with rat NHE-3 gene, compound present during pH recovery; for IC50: read-out: Rat NHE3 pIC50 (prompt) (converted)
T1 construct: expressed in transfected cells; host or cells: Opossum kidney (OK) cells (ATCC), transfected by electroporation
Method in brief: (§1)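 Opossum kidney cells electroporated with rat or human NHE-3, loaded with 5 μM BCECF-AM in NH4Cl-HEPES pH 7.4 for 30 min at RT, then acidified 10 min in Na+-free choline HEPES. Na+-dependent pH recovery rates from BCECF fluorescence, averaged over ≥2 replicates, gave pIC50.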

Fecal recovery = assay type: in vivo, Sprague Dawley rats; conditions: rat, 1 mg/kg oral gavage; for dose excreted: male, Sprague-Dawley, faeces
Description: Three male Sprague Dawley rats were administered 1 mg/kg test compound by oral gavage. Feces were collected from study animals from 0-48 or 0-72 hours after dosing, dried by lyophilization, and homogenized. Replicate aliquots of 40-60 mg each were subjected to extraction/protein precipitation with 7:1 acetonitrile:water and centrifuged. Supernatants were diluted 1:10 in 50:50 acetonitrile:water prior to analysis by LC-MS/MS. Compound concentrations, determined by interpolation from a standard calibration curve prepared in blank feces matrix, were converted to the percentage of dosed material recovered by taking into account the total collected fecal matter. The percent recovery for each rat was reported as the mean of the calculations from replicate samples. The overall percent recovery (Fecal Recovery [%]) was reported as the mean percent recovery from three rats. Accurate quality control sample recoveries were confirmed in each run, and extraction efficiency was periodically verified.

human NHE-3 = molecular target: T2, human NHE-3 (Homo sapiens, UniProt P48764); test: Cell-based assay of NHE-3 activity (human NHE3 inhibition assay); conditions: OK cells with human NHE-3 gene, BCECF pH dye, 0-30 μM test compound; for IC50: read-out: Human NHE3 pIC50 (converted)
T2 construct: expressed in transfected cells; host or cells: Opossum kidney (OK) cells (ATCC), transfected by electroporation
T2 sequence (P48764 26-834): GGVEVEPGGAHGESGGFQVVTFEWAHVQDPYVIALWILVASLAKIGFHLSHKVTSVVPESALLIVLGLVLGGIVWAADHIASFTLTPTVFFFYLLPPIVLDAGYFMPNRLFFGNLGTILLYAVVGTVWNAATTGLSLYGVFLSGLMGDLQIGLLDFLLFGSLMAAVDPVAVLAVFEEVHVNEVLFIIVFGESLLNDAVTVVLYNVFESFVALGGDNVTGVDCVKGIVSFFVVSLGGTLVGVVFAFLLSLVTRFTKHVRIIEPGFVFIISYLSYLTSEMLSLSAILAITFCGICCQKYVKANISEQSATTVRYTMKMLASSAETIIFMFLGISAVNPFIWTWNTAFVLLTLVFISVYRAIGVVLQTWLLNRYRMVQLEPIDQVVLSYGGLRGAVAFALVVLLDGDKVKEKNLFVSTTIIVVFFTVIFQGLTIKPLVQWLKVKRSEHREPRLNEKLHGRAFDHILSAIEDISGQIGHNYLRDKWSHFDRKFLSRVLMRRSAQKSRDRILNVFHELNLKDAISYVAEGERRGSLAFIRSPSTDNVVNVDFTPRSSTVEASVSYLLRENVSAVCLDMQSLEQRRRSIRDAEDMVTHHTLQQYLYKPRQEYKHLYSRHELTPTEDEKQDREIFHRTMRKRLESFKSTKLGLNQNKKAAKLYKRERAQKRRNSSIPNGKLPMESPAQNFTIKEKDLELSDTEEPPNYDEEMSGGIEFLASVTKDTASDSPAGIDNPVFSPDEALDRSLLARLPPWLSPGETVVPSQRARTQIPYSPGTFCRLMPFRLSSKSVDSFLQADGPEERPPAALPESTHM
Method in brief: as §1

Rat NHE-3 [2] = molecular target: T1, Rat NHE-3; test: Cell-based assay of NHE-3 activity (persistent inhibition, after washout); conditions: OK cells with rat NHE-3 gene, 60 min incubation, recovery initiated 40 min after compound washout; for IC50: read-out: Rat NHE3 pIC50 (persistent) (converted)
Method in brief: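 OK cells transiently expressing rat NHE-3 were exposed to 0-30 μM compound in NaCl-HEPES pH 7.4 for 60 min, then washed free of drug before NH4Cl/BCECF-AM loading and acid-loading in Na+-free choline buffer. Na+-dependent pH recovery rates (mean of ≥2 replicates) gave pIC50.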

T1 sequence (P26433 29-831): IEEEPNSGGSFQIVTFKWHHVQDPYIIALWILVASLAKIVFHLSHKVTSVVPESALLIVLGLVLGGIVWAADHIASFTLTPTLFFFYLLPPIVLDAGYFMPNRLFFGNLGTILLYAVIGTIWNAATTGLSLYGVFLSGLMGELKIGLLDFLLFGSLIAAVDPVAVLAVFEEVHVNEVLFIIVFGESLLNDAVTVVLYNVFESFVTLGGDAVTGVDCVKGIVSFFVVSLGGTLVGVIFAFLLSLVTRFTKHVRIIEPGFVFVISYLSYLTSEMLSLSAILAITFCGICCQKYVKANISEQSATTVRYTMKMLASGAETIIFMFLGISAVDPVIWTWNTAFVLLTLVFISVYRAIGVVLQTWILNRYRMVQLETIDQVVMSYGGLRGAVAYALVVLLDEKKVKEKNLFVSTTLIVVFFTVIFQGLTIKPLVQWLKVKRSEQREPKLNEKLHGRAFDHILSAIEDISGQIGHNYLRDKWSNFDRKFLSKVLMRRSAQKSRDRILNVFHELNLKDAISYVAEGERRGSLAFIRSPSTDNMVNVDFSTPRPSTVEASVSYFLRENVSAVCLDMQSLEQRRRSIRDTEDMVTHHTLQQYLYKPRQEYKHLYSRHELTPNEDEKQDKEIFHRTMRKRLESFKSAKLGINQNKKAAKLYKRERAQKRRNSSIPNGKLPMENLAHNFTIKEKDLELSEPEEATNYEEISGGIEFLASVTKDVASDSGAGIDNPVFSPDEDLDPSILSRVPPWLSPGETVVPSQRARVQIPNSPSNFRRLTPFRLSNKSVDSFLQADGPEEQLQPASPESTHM

SMILES	IC50 (Rat NHE-3 [1]) [nM]	dose excreted (Fecal recovery; collection time 48 h) [%]	IC50 (human NHE-3) [nM]	IC50 (Rat NHE-3 [2]) [nM]	dose excreted (Fecal recovery; collection time 72 h) [%]	Rat NHE3 pIC50 (prompt) (Rat NHE-3 [1])	Fecal Recovery (Fecal recovery; collection time 48 h) [%]	Human NHE3 pIC50 (human NHE-3)	Rat NHE3 pIC50 (persistent) (Rat NHE-3 [2])
CN1Cc2c(Cl)cc(Cl)cc2[C@H](c2cccc(S(=O)(=O)NCCOCCOCCNC(=O)CCC(N)(CCC(=O)NCCOCCOCCNS(=O)(=O)c3cccc([C@@H]4CN(C)Cc5c(Cl)cc(Cl)cc54)c3)CCC(=O)NCCOCCOCCNS(=O)(=O)c3cccc([C@@H]4CN(C)Cc5c(Cl)cc(Cl)cc54)c3)c2)C1 [Example 2, 4-amino-N^1,N^7-bis(2-(2-(2-(3-((S)-6,8-dichloro-2-methyl-1,2,3,4-tetrahydroisoquinolin-4-yl)phenylsulfonamido)ethoxy)ethoxy)ethyl)-4-(3-(2-(2-(2-(3-((S)-6,8-dichloro-2-methyl-1,2,3,4-tetrahydroisoquinolin-4-yl)phenylsulfonamido)ethoxy)ethoxy)ethylamino)-3-oxopropyl)heptanediamide]	< 100	87	< 100	< 100					
CN1Cc2c(Cl)cc(Cl)cc2[C@H](c2cccc(S(=O)(=O)NCCOCCOCCNC(=O)CCC(CCC(=O)NCCOCCOCCNS(=O)(=O)c3cccc([C@@H]4CN(C)Cc5c(Cl)cc(Cl)cc54)c3)(CCC(=O)NCCOCCOCCNS(=O)(=O)c3cccc([C@@H]4CN(C)Cc5c(Cl)cc(Cl)cc54)c3)NC(=O)NCCS(=O)(=O)O)c2)C1 [Example 3]	< 100		< 100	< 100	110				
CN1Cc2c(Cl)cc(Cl)cc2[C@H](c2cccc(S(=O)(=O)NCCOCCOCCNC(=O)CCC(CCC(=O)NCCOCCOCCNS(=O)(=O)c3cccc([C@@H]4CN(C)Cc5c(Cl)cc(Cl)cc54)c3)(CCC(=O)NCCOCCOCCNS(=O)(=O)c3cccc([C@@H]4CN(C)Cc5c(Cl)cc(Cl)cc54)c3)N(C)C)c2)C1 [Example 4, N^1,N^7-bis(2-(2-(2-(3-((S)-6,8-dichloro-2-methyl-1,2,3,4-tetrahydroisoquinolin-4-yl)phenylsulfonamido)ethoxy)ethoxy)ethyl)-4-(3-(2-(2-(2-(3-((S)-6,8-dichloro-2-methyl-1,2,3,4-tetrahydroisoquinolin-4-yl)phenylsulfonamido)ethoxy)ethoxy)ethylamino)-3-oxopropyl)-4-(dimethylamino)heptanediamide]	< 100		< 100	< 100					
CN1Cc2c(Cl)cc(Cl)cc2[C@H](c2cccc(S(=O)(=O)NCCOCCOCCNC(=O)CCC(CCC(=O)NCCOCCOCCNS(=O)(=O)c3cccc([C@@H]4CN(C)Cc5c(Cl)cc(Cl)cc54)c3)(CCC(=O)NCCOCCOCCNS(=O)(=O)c3cccc([C@@H]4CN(C)Cc5c(Cl)cc(Cl)cc54)c3)NC(=O)COCC(=O)O)c2)C1 [Example 6, 1-(3-((S)-6,8-dichloro-2-methyl-1,2,3,4-tetrahydroisoquinolin-4-yl)phenylsulfonamido)-13,13-bis(3-(2-(2-(2-(3-((S)-6,8-dichloro-2-methyl-1,2,3,4-tetrahydroisoquinolin-4-yl)phenylsulfonamido)ethoxy)ethoxy)ethylamino)-3-oxopropyl)-10,15-dioxo-3,6,17-trioxa-9,14-diazanonadecan-19-oic Acid]	< 100	51.5	< 100	< 100					
CN1Cc2c(Cl)cc(Cl)cc2[C@H](c2cccc(S(=O)(=O)NCCOCCOCCNC(=O)CCC(CCC(=O)NCCOCCOCCNS(=O)(=O)c3cccc([C@@H]4CN(C)Cc5c(Cl)cc(Cl)cc54)c3)(CCC(=O)NCCOCCOCCNS(=O)(=O)c3cccc([C@@H]4CN(C)Cc5c(Cl)cc(Cl)cc54)c3)NC(=O)NCC(=O)O)c2)C1 [Example 7, 18-(3-((S)-6,8-dichloro-2-methyl-1,2,3,4-tetrahydroisoquinolin-4-yl)phenylsulfonamido)-6,6-bis(3-(2-(2-(2-(3-((S)-6,8-dichloro-2-methyl-1,2,3,4-tetrahydroisoquinolin-4-yl)phenylsulfonamido)ethoxy)ethoxy)ethylamino)-3-oxopropyl)-4,9-dioxo-13,16-dioxa-3,5,10-triazaoctadecan-1-oic acid]	< 100	83.2	< 100	< 100					
CN1Cc2c(Cl)cc(Cl)cc2[C@H](c2cccc(S(=O)(=O)NCCOCCOCCNC(=O)CCC(CCC(=O)NCCOCCOCCNS(=O)(=O)c3cccc([C@@H]4CN(C)Cc5c(Cl)cc(Cl)cc54)c3)(CCC(=O)NCCOCCOCCNS(=O)(=O)c3cccc([C@@H]4CN(C)Cc5c(Cl)cc(Cl)cc54)c3)NC(=O)NC(CO)(CO)CO)c2)C1 [Example 11, N^1,N^7-bis(2-(2-(2-(3-((S)-6,8-dichloro-2-methyl-1,2,3,4-tetrahydroisoquinolin-4-yl)phenylsulfonamido)ethoxy)ethoxy)ethyl)-4-(3-(2-(2-(2-(3-((S)-6,8-dichloro-2-methyl-1,2,3,4-tetrahydroisoquinolin-4-yl)phenylsulfonamido)ethoxy)ethoxy)ethylamino)-3-oxopropyl)-4-(3-(1,3-dihydroxy-2-(hydroxymethyl)propan-2-yl)ureido)heptanediamide]	> 10000	64.1	100 to 10000	< 100					
CN(C)CC(=O)NC(CCC(=O)NCCOCCOCCNS(=O)(=O)c1cccc([C@@H]2CN(C)Cc3c(Cl)cc(Cl)cc32)c1)(CCC(=O)NCCOCCOCCNS(=O)(=O)c1cccc([C@@H]2CN(C)Cc3c(Cl)cc(Cl)cc32)c1)CCC(=O)NCCOCCOCCNS(=O)(=O)c1cccc([C@@H]2CN(C)Cc3c(Cl)cc(Cl)cc32)c1 [Example 14, N1,N7-bis(2-(2-(2-(3-((S)-6,8-dichloro-2-methyl-1,2,3,4-tetrahydroisoquinolin-4-yl)phenylsulfonamido)ethoxy)ethoxy)ethyl)-4-(3-(2-(2-(2-(3-((S)-6,8-dichloro-2-methyl-1,2,3,4-tetrahydroisoquinolin-4-yl)phenylsulfonamido)ethoxy)ethoxy)ethylamino)-3-oxopropyl)-4-(2-(dimethylamino)acetamido)heptanediamide]	< 100		< 100	< 100	75.3				
CN1Cc2c(Cl)cc(Cl)cc2[C@H](c2cccc(S(=O)(=O)NCCOCCOCCNC(=O)CCC(CCC(=O)NCCOCCOCCNS(=O)(=O)c3cccc([C@@H]4CN(C)Cc5c(Cl)cc(Cl)cc54)c3)(CCC(=O)NCCOCCOCCNS(=O)(=O)c3cccc([C@@H]4CN(C)Cc5c(Cl)cc(Cl)cc54)c3)NC(=O)NCCN3CCOCC3)c2)C1 [Example 17, N^1,N^7-bis(2-(2-(2-(3-((S)-6,8-dichloro-2-methyl-1,2,3,4-tetrahydroisoquinolin-4-yl)phenylsulfonamido)ethoxy)ethoxy)ethyl)-4-(3-(2-(2-(2-(3-((S)-6,8-dichloro-2-methyl-1,2,3,4-tetrahydroisoquinolin-4-yl)phenylsulfonamido)ethoxy)ethoxy)ethylamino)-3-oxopropyl)-4-(3-(2-morpholinoethyl)ureido)heptanediamide]	< 100		< 100	< 100	96.9				
CN1Cc2c(Cl)cc(Cl)cc2[C@H](c2cccc(S(=O)(=O)NCCOCCOCCNC(=O)CCC(CCC(=O)NCCOCCOCCNS(=O)(=O)c3cccc([C@@H]4CN(C)Cc5c(Cl)cc(Cl)cc54)c3)(CCC(=O)NCCOCCOCCNS(=O)(=O)c3cccc([C@@H]4CN(C)Cc5c(Cl)cc(Cl)cc54)c3)NC(=O)CCCC(=O)O)c2)C1 [Example 36]						C (C NHE3 pIC50 > 7)	68	C (C NHE3 pIC50 > 7)	C (C NHE3 pIC50 > 7)
